Columns and labels:
Format in all cases: cell-based
HCT-116 = experiment: NCI 60 cell line screen (SRB), Colon Cancer; conditions: PG=0
BT-549 = experiment: NCI 60 cell line screen (SRB), Breast Cancer
60 cell line panel = experiment: NCI 60 cell line screen (SRB), whole panel; conditions: panel summary
Procedure: The screening assay is performed on 96-well microtitre plates. Relatively high initial inoculation densities are used, in order to permit measurement of “time-zero” values and to enhance the screen's ability to detect and provide some differentiation between antiproliferative and cytotoxic response parameters. […] The inoculated microtitre plates are pre-incubated for 24 hours at 37θC prior to drug additions. The five drug dilutions tested routinely range from 10^−4 to 10^−8 molar. Higher or lower concentration ranges may be selected on a nonroutine basis if appropriate solubility and/or prior biological information or other screening data so dictate. Duplicate wells are prepared for all concentrations, (concentration is often denoted by placing brackets around a number); “time-zero” and “no drug” controls are also provided for each test. The minimum amount of compound required for a one-time evaluation in the routine screen can be calculated from the knowledge that each test requires a total of approximately 40 ml (0.04 liter) of cell culture medium containing the highest desired drug concentration. Thus, the amount (grams) of sample required (assuming an upper test concentration limit of 10^−4 M) is: molecular weight of compound×[…]. After a 48 hour incubation (37θC) with the test compound, the cells are fixed in situ to the bottoms of the microtitre wells by addition of 50 ul of either 50% trichloroacetic acid (for adherent cell lines) or 80% trichloroacetic acid (for settled cell suspension lines), followed by incubation for 60 minutes at 4θC. The cellular protein in each well is assayed using a sulforhodamine B (SRB) stain procedure. Briefly, after discarding the supernatants, the microtitre plates are washed 5 times with deionized water and air-dried. One hundred microliters of SRB solution (0.4% w/v in 1% acetic acid) is added to each microtitre well and incubated for 10 minutes at room temperature. Unbound SRB is removed by washing 5 times with 1 % acetic acid. The plates are air-dried, the bound stain is solubilized with Tris buffer, and the optical densities read at 515 nm. SRB is a bright pink anionic dye which, in dilute acetic acid, binds electrostatically to the basic amino acids of TCA-fixed cells. Cryopreserved master stocks of all the lines are maintained, and cultures used for screening are replaced from the master stock after no more than twenty passages in the screening laboratory. The cell line panel consists of 60 lines, organized into nine, disease-related subpanels including leukemia, non-small-cell lung cancer, colon, CNS, melanoma, ovarian, renal, prostate and breast cancers.
The response parameters G150 and LC50 are interpolated values representing the concentrations at which the percentage growth (PG) is +50 and −50, respectively:
GI50 is the concentration for which the PG=+50. At this value the increase from time tzero, in the number or mass of cells in the test well is only 50% as much as the corresponding increase in the control well during this period of the experiment, see Table II. A drug effect of this intensity is interpreted as primary growth inhibition.
TGI is the concentration for which PG=0. At this value the number or mass of cells in the well at the end of the experiment equals the number or mass of cells in the well at time tzero, see Table III. A drug effect of this intensity is regarded as cytostasis.
LC50 is the concentration for which the PG=−50. At this value, the number or mass of cells in the test well at the end of the experiment is half that at time tzero, see Table IV. This is interpreted as cytotoxicity.

OVCAR-5 = experiment: NCI 60 cell line screen (SRB), Ovarian Cancer; conditions: for Log10TGI: PG=0
COLO 205 = experiment: NCI 60 cell line screen (SRB), Colon Cancer
A498 = experiment: NCI 60 cell line screen (SRB), Renal Cancer
RPMI-8226 = experiment: NCI 60 cell line screen (SRB), Leukemia; conditions: for Log10TGI: PG=0
HOP-62 = experiment: NCI 60 cell line screen (SRB), Non-Small Cell Lung Cancer

| SMILES | Log10TGI (HCT-116) [log10M] | Range of Log10GI50 (Table IV) (60 cell line panel; Table IV (LC50)) | Delta of Log10GI50 (60 cell line panel) | Delta of Log10TGI (60 cell line panel) | Range of Log10GI50 (60 cell line panel) | Range of Log10TGI (60 cell line panel) | Log10TGI (OVCAR-5) [log10M] | Log10GI50 (OVCAR-5; PG=+50) [log10M] | Log10GI50 (OVCAR-5; Table IV (LC50, PG=−50)) [log10M] | Log10GI50 (COLO 205; PG=+50) [log10M] | Log10GI50 (COLO 205; Table IV (LC50, PG=−50)) [log10M] | Log10GI50 (A498; PG=+50) [log10M] | Log10GI50 (A498; Table IV (LC50, PG=−50)) [log10M] | Log10TGI (RPMI-8226) [log10M] | Log10GI50 (RPMI-8226; PG=+50) [log10M] | Log10GI50 (RPMI-8226; Table IV (LC50, PG=−50)) [log10M] | Log10GI50 (HOP-62; PG=+50) [log10M] | further results |
| --- | --- | --- | --- | --- | --- | --- | --- | --- | --- | --- | --- | --- | --- | --- | --- | --- | --- | --- |
| C[C@@H]1CC[C@H]2[C@@H](C)C(=O)O[C@@H]3O[C@]4(C)CC[C@@H]1[C@]32OO4 [Artemisinin, artemisinin] | >−4.00 | 0.00 | −4.07 | −4.00 | 0.73 | 0.06 | >−4.00 | >−4.00 | >−4.00 | >−4.00 | >−4.00 | >−4.00 | >−4.00 | >−4.00 | >−4.00 | >−4.00 | >−4.00 | Log10TGI (BT-549; PG=0): >−4.00 log10M; Log10GI50 (BT-549; Table IV (LC50, PG=−50)): >−4.00 log10M; Delta of Log10GI50 (Table IV) (60 cell line panel; Table IV (LC50)): −4.00; Log10TGI (COLO 205; PG=0): >−4.00 log10M; Log10TGI (A498; PG=0): >−4.00 log10M; Log10TGI (HOP-62; PG=0): >−4.00 log10M; Log10GI50 (HOP-62; Table IV (LC50, PG=−50)): >−4.00 log10M |
| CC(=O)O[C@H]1C(=O)[C@@]2(C)[C@H]([C@H](OC(=O)c3ccccc3)[C@]3(O)C[C@H](OC(=O)[C@H](O)[C@@H](NC(=O)c4ccccc4)c4ccccc4)C(C)=C1C3(C)C)[C@]1(OC(C)=O)CO[C@@H]1C[C@@H]2O [Paclitaxel, paclitaxel, reference compound] | −4.82 | 4.06 | −10.15 | −4.54 | 8.00 | 7.20 | −4.92 | −9.38 | >−4.00 | −11.07 | >−4.41 | −7.14 | −4.13 | <-13.00 | <−13.00 | >−4.00 | −9.67 | Log10GI50 (BT-549; PG=+50): −9.81 log10M |

Source: patent US20020055528A1, “Artemisinin analogs having antimalarial, antiproliferative, and antitumor activities and chemoselective methods of making the same” (priority 1999, published 2002)
